Measured values: US10633419B2, “Immunomodulators” (BRISTOL-MYERS SQUIBB COMPANY, priority 2014, dated 2020)
pIC50: −log10 of the molar value. Starred links: 1 amine or outer side, 2 acyl side, 3 side chain; linkers in the order of their positions; H or OH if unused. Positions of bridges follow the written chain, without caps; N, C: chain ends. Non-standard residues stand in square brackets, D forms with d. Residues, ends and D or L forms follow the SMILES beside them. *: point of attachment. X29 = O=C(O)CCCCCCCCCCCCCCCCC(=O)N[C@H](CCC(=O)NCCCC[C@@H](NC(=O)NCC(=O)[C@H](CSCC(=O)[*:1])N[*:2])C(=O)O)C(=O)O; εLys(α-Octadecanedioyl) = O=C(O)CCCCCCCCCCCCCCCCC(=O)N[C@@H](CCCCN*)C(=O)O; X25 = CCCCCCCC[C@@H](NC(=O)CCC(=O)NCCCOCCOCCOCCCN*)C(=O)O; Trp(1-CH2COOH) = N[C@@H](Cc1cn(CC(=O)O)c2ccccc12)C(=O)O; X14 = O=C(O)CCCCCCCCCCNC(=O)CCC(=O)NCCCOCCOCCOCCCN*; X5 = O=C(O)CCCCCCCCCCCCCCCCC(=O)NCCCOCCOCCOCCCN*; d(cisHyp) = O=C(O)[C@H]1C[C@@H](O)CN1; Hyp = O=C(O)[C@@H]1C[C@@H](O)CN1; NMeNle = CCCC[C@H](NC)C(=O)O; NMeA = CN[C@@H](C)C(=O)O; Aun = NCCCCCCCCCCC(=O)O; Dab = NCC[C@H](N)C(=O)O; Dap = NC[C@H](N)C(=O)O; Ava = NCCCCC(=O)O

Biological target: T1, PD-L1 (Homo sapiens, UniProt Q9NZQ7)
T1 construct: hPDL1(19-239)-TVMV-His; made in house; host or cells: HEK293T
Assay: PD-1/PD-L1 Homogenous Time-Resolved Fluorescence (HTRF) binding assay (PD-1-Ig/PD-L1-His)
Conditions: inhibition of PD-1-Ig binding to PD-L1-TVMV-His; value given as number; read-out: HTRF IC50
Summary of the method: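 Inhibitors pre-incubated 15 min with PD-L1-His (10 nM final), then PD-1-Ig (20 nM final) added for 15 min in dPBS/0.1% BSA/0.05% Tween-20. Eu-cryptate anti-Ig (1 nM) and APC anti-His (20 nM) added, 30 min equilibration, 665/620 nm HTRF ratio read.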

T1 sequence (Q9NZQ7 with tags, fused parts or gaps): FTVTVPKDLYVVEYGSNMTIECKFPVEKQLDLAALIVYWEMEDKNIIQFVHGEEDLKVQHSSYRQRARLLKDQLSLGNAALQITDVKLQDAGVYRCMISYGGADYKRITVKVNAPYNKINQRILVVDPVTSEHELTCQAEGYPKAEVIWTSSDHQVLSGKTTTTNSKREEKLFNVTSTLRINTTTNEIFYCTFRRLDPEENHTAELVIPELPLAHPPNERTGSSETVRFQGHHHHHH

| pIC50 | Compound |
| --- | --- |
| 5.80 | CCCC[C@H]1C(=O)N(C)[C@@H](CCCC)C(=O)N[C@@H](CC(C)C)C(=O)N[C@H](C(=O)NCCCOCCOCCOCCCNC(=O)CCCCCCCCCCCCCCCCC(=O)O)CSCC(=O)N[C@@H](Cc2ccc(O)cc2)C(=O)N(C)[C@@H](C)C(=O)N[C@@H](CC(N)=O)C(=O)N2CCC[C@H]2C(=O)N[C@@H](CN)C(=O)N[C@@H](CCC(N)=O)C(=O)N2C[C@H](O)C[C@H]2C(=O)N[C@@H](Cc2c[nH]c3ccccc23)C(=O)N[C@@H](CO)C(=O)N[C@@H](Cc2cn(CC(=O)O)c3ccccc23)C(=O)N1C [Example 11133] ({CH2CO}-Y[NMeA]NP[Dap]Q[Hyp]WS[Trp(1-CH2COOH)][NMeNle][NMeNle]LC-X5; thioether N-14) |

Same assay, conditions: inhibition of PD-1-Ig binding to PD-L1-TVMV-His; value given as range class; read-out: HTRF IC50

| Compound | pIC50 |
| --- | --- |
| CCCC[C@H]1C(=O)N(C)[C@@H](CCCC)C(=O)N[C@@H](CC(C)C)C(=O)N[C@H](C(=O)NCCCCCCCCCCC(=O)N[C@@H](CC(=O)O)C(=O)O)CSCC(=O)N[C@@H](Cc2ccc(O)cc2)C(=O)N(C)[C@@H](C)C(=O)N[C@@H](CC(N)=O)C(=O)N2CCC[C@H]2C(=O)N[C@@H](Cc2cnc[nH]2)C(=O)N[C@@H](CCC(=O)O)C(=O)N2C[C@H](O)C[C@H]2C(=O)N[C@@H](Cc2c[nH]c3ccccc23)C(=O)N[C@@H](CCN)C(=O)N[C@@H](Cc2c[nH]c3ccccc23)C(=O)N1C [Example 11129] ({CH2CO}-Y[NMeA]NPHE[Hyp]W[Dab]W[NMeNle][NMeNle]LC[Aun]D-OH; thioether N-14) | 7.00 to 8.00 |
| CCCC[C@H]1C(=O)N(C)[C@@H](CCCC)C(=O)N[C@@H](CC(C)C)C(=O)N[C@H](C(=O)NCCCCCCCCCCC(=O)N[C@@H](CCC(=O)O)C(=O)O)CSCC(=O)N[C@@H](Cc2ccc(O)cc2)C(=O)N(C)[C@@H](C)C(=O)N[C@@H](CC(N)=O)C(=O)N2CCC[C@H]2C(=O)N[C@@H](Cc2cnc[nH]2)C(=O)N[C@@H](CCC(=O)O)C(=O)N2C[C@H](O)C[C@H]2C(=O)N[C@@H](Cc2c[nH]c3ccccc23)C(=O)N[C@@H](CCN)C(=O)N[C@@H](Cc2c[nH]c3ccccc23)C(=O)N1C [Example 11130] ({CH2CO}-Y[NMeA]NPHE[Hyp]W[Dab]W[NMeNle][NMeNle]LC[Aun]E-OH; thioether N-14) | 7.00 to 8.00 |
| CCCC[C@H]1C(=O)N(C)[C@@H](CCCC)C(=O)N[C@@H](CC(C)C)C(=O)N[C@H](C(=O)NCCCCCCCCCCC(=O)N[C@@H](CCC(=O)O)C(=O)O)CSCC(=O)N[C@@H](Cc2ccc(O)cc2)C(=O)N(C)[C@@H](C)C(=O)N[C@@H](CC(N)=O)C(=O)N2CCC[C@H]2C(=O)N[C@@H](CN)C(=O)N[C@@H](CCC(N)=O)C(=O)N2C[C@H](O)C[C@H]2C(=O)N[C@@H](Cc2c[nH]c3ccccc23)C(=O)N[C@@H](CO)C(=O)N[C@@H](Cc2cn(CC(=O)O)c3ccccc23)C(=O)N1C [Example 11132] ({CH2CO}-Y[NMeA]NP[Dap]Q[Hyp]WS[Trp(1-CH2COOH)][NMeNle][NMeNle]LC[Aun]E-OH; thioether N-14) | 7.00 to 8.00 |
| CCCC[C@H]1C(=O)N(C)[C@@H](CCCC)C(=O)N[C@@H](CC(C)C)C(=O)N[C@H](C(=O)CNC(=O)N[C@H](CCCCNC(=O)CC[C@@H](NC(=O)CCCCCCCCCCCCCCCCC(=O)O)C(=O)O)C(=O)O)CSCC(=O)N[C@@H](Cc2ccc(O)cc2)C(=O)N(C)[C@@H](C)C(=O)N[C@@H](CC(N)=O)C(=O)N2CCC[C@H]2C(=O)N[C@@H](CN)C(=O)N[C@@H](CC(C)C)C(=O)N2C[C@H](O)C[C@H]2C(=O)N[C@@H](Cc2c[nH]c3ccccc23)C(=O)N[C@@H](CCN)C(=O)N[C@@H](Cc2cn(CC(=O)O)c3ccccc23)C(=O)N1C [Example 11134] (Y[NMeA]NP[Dap]L[Hyp]W[Dab][Trp(1-CH2COOH)][NMeNle][NMeNle]L; linker N-C via X29) | 7.00 to 8.00 |
| CCCCCCCC[C@@H](NC(=O)CCC(=O)NCCCOCCOCCOCCCNC(=O)[C@@H]1CSCC(=O)N[C@@H](Cc2ccc(O)cc2)C(=O)N(C)[C@@H](C)C(=O)N[C@@H](CC(N)=O)C(=O)N2CCC[C@H]2C(=O)N[C@@H](CN)C(=O)N[C@@H](CC(C)C)C(=O)N2C[C@H](O)C[C@H]2C(=O)N[C@@H](Cc2c[nH]c3ccccc23)C(=O)N[C@@H](CCN)C(=O)N[C@@H](Cc2cn(CC(=O)O)c3ccccc23)C(=O)N(C)[C@@H](CCCC)C(=O)N(C)[C@@H](CCCC)C(=O)N[C@@H](CC(C)C)C(=O)N1)C(=O)O [Example 11135] ({CH2CO}-Y[NMeA]NP[Dap]L[Hyp]W[Dab][Trp(1-CH2COOH)][NMeNle][NMeNle]LC-X25; thioether N-14) | 7.00 to 8.00 |
| CCCC[C@H]1C(=O)N(C)[C@@H](CCCC)C(=O)N[C@@H](CC(C)C)C(=O)N[C@H](C(=O)NCC(=O)NCC(=O)NCC(=O)NCCCCC(=O)O)CSCC(=O)N[C@@H](Cc2ccc(O)cc2)C(=O)N(C)[C@@H](C)C(=O)N[C@@H](CC(N)=O)C(=O)N2CCC[C@H]2C(=O)N[C@@H](CN)C(=O)N[C@@H](CC(C)C)C(=O)N2C[C@H](O)C[C@@H]2C(=O)N[C@@H](Cc2c[nH]c3ccccc23)C(=O)N[C@@H](CCN)C(=O)N[C@@H](Cc2cn(CC(=O)O)c3ccccc23)C(=O)N1C [Example 11137] ({CH2CO}-Y[NMeA]NP[Dap]L[d(cisHyp)]W[Dab][Trp(1-CH2COOH)][NMeNle][NMeNle]LCGGG[Ava]-OH; thioether N-14) | 7.00 to 8.00 |
| CCCC[C@H]1C(=O)N(C)[C@@H](CCCC)C(=O)N[C@@H](CC(C)C)C(=O)N[C@H](C(=O)NCCCOCCOCCOCCCNC(=O)CCC(=O)NCCCCCCCCCCC(=O)O)CSCC(=O)N[C@@H](Cc2ccc(O)cc2)C(=O)N(C)[C@@H](C)C(=O)N[C@@H](CC(N)=O)C(=O)N2CCC[C@H]2C(=O)N[C@@H](CN)C(=O)N[C@@H](CC(C)C)C(=O)N2C[C@H](O)C[C@@H]2C(=O)N[C@@H](Cc2c[nH]c3ccccc23)C(=O)N[C@@H](CCN)C(=O)N[C@@H](Cc2cn(CC(=O)O)c3ccccc23)C(=O)N1C [Example 11138] ({CH2CO}-Y[NMeA]NP[Dap]L[d(cisHyp)]W[Dab][Trp(1-CH2COOH)][NMeNle][NMeNle]LC-X14; thioether N-14) | 7.00 to 8.00 |
| CCCC[C@H]1C(=O)N(C)[C@@H](CCCC)C(=O)N[C@@H](CC(C)C)C(=O)N[C@H](C(=O)NCCCOCCOCCOCCCNC(=O)CCC(=O)NCCCCCCCCCCC(=O)O)CSCC(=O)N[C@@H](Cc2ccc(O)cc2)C(=O)N(C)[C@@H](C)C(=O)N[C@@H](CCC(=O)O)C(=O)N2CCC[C@H]2C(=O)N[C@@H](Cc2cnc[nH]2)C(=O)N[C@@H](CCCCN)C(=O)N2C[C@H](O)C[C@H]2C(=O)N[C@@H](Cc2c[nH]c3ccccc23)C(=O)N[C@@H](CCCCN)C(=O)N[C@@H](Cc2cn(CC(=O)O)c3ccccc23)C(=O)N1C [Example 11139] ({CH2CO}-Y[NMeA]EPHK[Hyp]WK[Trp(1-CH2COOH)][NMeNle][NMeNle]LC-X14; thioether N-14) | 7.00 to 8.00 |

Second part, the compound after the results:

| pIC50 | Compound |
| --- | --- |
| 7.00 to 8.00 | CCCC[C@H]1C(=O)N(C)[C@@H](CCCC)C(=O)N[C@@H](CC(C)C)C(=O)N[C@H](C(=O)NCC(=O)NCCCC[C@H](NC(=O)CCCCCCCCCCCCCCCCC(=O)O)C(=O)O)CSCC(=O)N[C@@H](Cc2ccc(O)cc2)C(=O)N(C)[C@@H](C)C(=O)N[C@@H](CC(N)=O)C(=O)N2CCC[C@H]2C(=O)N[C@@H](CN)C(=O)N[C@@H](CC(C)C)C(=O)N2C[C@H](O)C[C@@H]2C(=O)N[C@@H](Cc2c[nH]c3ccccc23)C(=O)N[C@@H](CCN)C(=O)N[C@@H](Cc2cn(CC(=O)O)c3ccccc23)C(=O)N1C [Example 11141] ({CH2CO}-Y[NMeA]NP[Dap]L[d(cisHyp)]W[Dab][Trp(1-CH2COOH)][NMeNle][NMeNle]LCG-{εLys(α-Octadecanedioyl)}; thioether N-14) |
| 8.00 to 9.52 | CCCC[C@H]1C(=O)N(C)[C@@H](CCCC)C(=O)N[C@@H](CC(C)C)C(=O)N[C@H](C(=O)NCCCC[C@H](NC(=O)CCCCCCCCCCCCCCCCC(=O)O)C(=O)O)CSCC(=O)N[C@@H](Cc2ccc(O)cc2)C(=O)N(C)[C@@H](C)C(=O)N[C@@H](CC(N)=O)C(=O)N2CCC[C@H]2C(=O)N[C@@H](CN)C(=O)N[C@@H](CC(C)C)C(=O)N2C[C@H](O)C[C@@H]2C(=O)N[C@@H](Cc2c[nH]c3ccccc23)C(=O)N[C@@H](CCN)C(=O)N[C@@H](Cc2cn(CC(=O)O)c3ccccc23)C(=O)N1C [Example 11143] ({CH2CO}-Y[NMeA]NP[Dap]L[d(cisHyp)]W[Dab][Trp(1-CH2COOH)][NMeNle][NMeNle]LC-{εLys(α-Octadecanedioyl)}; thioether N-14) |
| 7.00 to 8.00 | CCCC[C@H]1C(=O)N(C)[C@@H](CCCC)C(=O)N[C@@H](CCC(=O)O)C(=O)N[C@H](C(=O)NCC(=O)NCC(=O)NCC(=O)NCCCCCCCCCCC(=O)O)CSCC(=O)N[C@@H](Cc2ccc(O)cc2)C(=O)N(C)[C@@H](C)C(=O)N[C@@H](CC(=O)O)C(=O)N2CCC[C@H]2C(=O)N[C@@H](CN)C(=O)N[C@@H](CC(C)C)C(=O)N2C[C@H](O)C[C@@H]2C(=O)N[C@@H](Cc2c[nH]c3ccccc23)C(=O)N[C@@H](CCN)C(=O)N[C@@H](Cc2cn(CC(=O)O)c3ccccc23)C(=O)N1C [Example 11144] ({CH2CO}-Y[NMeA]DP[Dap]L[d(cisHyp)]W[Dab][Trp(1-CH2COOH)][NMeNle][NMeNle]ECGGG[Aun]-OH; thioether N-14) |
| 8.00 to 9.52 | CCCC[C@H]1C(=O)N(C)[C@@H](CCCC)C(=O)N[C@@H](CCC(=O)O)C(=O)N[C@H](C(=O)NCCCOCCOCCOCCCNC(=O)CCC(=O)NCCCCCCCCCCC(=O)O)CSCC(=O)N[C@@H](Cc2ccc(O)cc2)C(=O)N(C)[C@@H](C)C(=O)N[C@@H](CC(=O)O)C(=O)N2CCC[C@H]2C(=O)N[C@@H](CN)C(=O)N[C@@H](CC(C)C)C(=O)N2C[C@H](O)C[C@@H]2C(=O)N[C@@H](Cc2c[nH]c3ccccc23)C(=O)N[C@@H](CCN)C(=O)N[C@@H](Cc2cn(CC(=O)O)c3ccccc23)C(=O)N1C [Example 11145] ({CH2CO}-Y[NMeA]DP[Dap]L[d(cisHyp)]W[Dab][Trp(1-CH2COOH)][NMeNle][NMeNle]EC-X14; thioether N-14) |
